{"source": "patent US20020182179A1", "about": "“HIV Therapy” (priority 1999, published 2002)", "key": {"[1]": {"target": "HIV-1 protease (Human immunodeficiency virus type 1 group M subtype B, UniProt P04585)", "conditions": "Phase I studies; cited from earlier work"}, "[2]": {"conditions": "preclinical; po and IV; cited from earlier work"}, "[3]": {"test_system": "HIV-1", "conditions": "clinical use; cited from earlier work"}, "[4]": {"test_system": "HIV-1-LAI strain", "test": "in vitro anti-HIV-1 activity in PHA-P-activated PBMCs, RT activity in cell supernatants", "format": "cell-based", "procedure": "Healthy PBMCs were separated from a buffy-coat of one HIV-seronegative blood donor by Ficoll-Hypaque density gradient centrifugation. PBMCs were activated by 1 μg/ml phytohemagglutinin (PHA-P) for two days in cell culture medium A: RPMI 1640 supplemented with 10% heat-inactivated (+56° C., 45 min.) fetal calf plasma (FCS), 2 mM L-glutamine and a tri-antibiotic mixture (penicillin, streptomycin, neomycin; PSN). After these two days, cells were washed and cultured at one million cell per milliliter in cell culture medium B: cell culture medium A supplemented with 20 IU/ml recombinant human interleukin-2. Cells were maintained at +37° C. in a 5% CO2-air humidified atmosphere.\nExperiments were repeated twice with cells of other blood donors. In total, three independent experiments were performed. […]\n200,000 PHA-P-activated PBMCs were added to each well of 96-well microplates. […] At day 7, RT activity were determined in cell supernatants, and potential cytotoxic effects of drugs and drug combinations were evaluated by microscopic observation.\nViral replication was measured by determining reverse transcriptase (“RT”) activity in cell supernatants using Retro-Sys® kit, according to manufacturer's recommendations (Innovagen, Lund, Sweden).\nEffective doses were calculated using cumulative RT activities with Chou J. and T C. microcomputer software."}, "[5]": {"test_system": "duck HBV", "conditions": "preclinical; cited from earlier work"}}, "data": [{"compound": "Cc1cccc(C)c1OCC(=O)N[C@@H](Cc1ccccc1)[C@@H](O)C[C@H](Cc1ccccc1)NC(=O)[C@H](C(C)C)N1CCCNC1=O", "note": "[ABT-378]", "values": [{"measurement": "potency relative to ritonavir", "setting": "[1]", "value": "^9Phase I Studies show ABT-378 to be 10X more potent than ritonavir; see PharmaProjects sections J5A & J5Z."}]}, {"compound": "Nc1nc(N)c2ncn([C@H]3CO[C@@H](CO)O3)c2n1", "note": "[DAPD, (−)-beta-D-2,6,-diaminopurine dioxolane]", "values": [{"measurement": "activity by route of administration", "setting": "[2]", "value": "^10Preclinical; active po and IV; DAPD is a prodrug of another dioxolene purine, DXG. See PharmaProjects, sections J5A & J5Z"}]}, {"compound": "CC(C)c1nc(CN(C)C(=O)N[C@H](C(=O)N[C@@H](Cc2ccccc2)C[C@H](O)[C@H](Cc2ccccc2)NC(=O)OCc2cncs2)C(C)C)cs1", "note": "[Ritonavir]", "values": [{"measurement": "adverse effects", "setting": "[3]", "value": "troublesome adverse effects"}]}, {"compound": "PEG12000-IFN-alfa2b: conjugate of interferon alfa-2b with polyethylene glycol of average molecular weight 12000 via a urethane linkage", "values": [{"measurement": "effect on the in vitro anti HIV-1 activity of ribavirin", "setting": "[4]; PHA-P-activated PBMCs infected with HIV-1-LAI", "value": "increased the in vitro anti HIV-1 activity of ribavirin"}, {"measurement": "inhibition of HIV replication in vitro", "setting": "[4]; PHA-P-activated PBMCs, doses corresponding to plasmatic concentrations observed in animals and man", "value": "inhibited the HIV replication"}]}, {"compound": "beta-L-2′, 3′-dicleoxy-5-fluorocytidene [Beta-L-FD4]", "values": [{"measurement": "activity in duck HBV model", "setting": "[5]", "value": "^9Preclinical; active in duck HBV model; see PharmaProjects, sections J5A & J5Z"}]}]}
